Measurements as given in patent publication US8628792B2, “Drug cores for sustained release of therapeutic agents” (Mati Therapeutics, Inc., priority 2007, dated 2014).
Where “and” joins values, the source holds several entries; their conditions need not be identical. Equal entries are not always repeated.

Key:
[1] = In vitro elution study of drug cores (drug in silicone matrix in polyimide tube) in 7.4 pH buffer, HPLC; format: physicochemical; conditions: for Duration: calculated time when ~10% of drug remains
From the text: Drug cores as described above have been fabricated with different cross sectional sizes of 0.006 inches, 0.012 inches, and 0.025 inches, and drug concentrations of 5%, 10% and 20% in a silicone matrix. Theses drug cores can be made with a Syringe Tube and Cartridge Assembly, Mixing Latanoprost with Silicone, and Injecting the mixture into a polyimide tube which is cut to desired lengths and sealed. The length of the drug cores were approximately 0.80 to 0.95 mm, which for a diameter of 0.012 inches (0.32 mm) corresponds to total Latanoprost content in the drug cores of approximately 3.5 μg, 7 μg and 14 μg for concentrations of 5%, 10% and 20%, respectively.
Mix Latanoprost with Silicone. Prepare Latanoprost. Latanoprost is provided as a 1% solution in methylacetate. Place the appropriate amount of solution into a dish and using a nitrogen stream, evaporate the solution until only the Latanoprost remains. Place the dish with the Latanoprost oil under vacuum for 30 minutes. Combine Latanoprost with silicone. Prepare three different concentrations of Latanoprost (5%, 10% and 20%) in silicone Nusil 6385 and inject it into tubing of different diameters (0.006 in, 0.012 in and 0.025 inches) to generate 3×3 matrixes. The percent of Latanoprost to silicone is determined by the total weight of the drug matrix. Calculation: Weight of Latanoprost/(weight of Latanoprost+weight of silicone)×100=percent drug.
Inject tube. 1. Insert Cartridge and Polyimide tubes assembly into 1 ml syringe. 2. Add one drop of catalyst, (MED-6385 Curing Agent) in the syringe. 3. Force excess catalyst out of the polyimide tube with clean air. 4. Fill syringe with silicone drug matrix. 5, Inject tube with drug matrix until the tube is filled or the syringe plunger becomes too difficult to push. 6. Close off the distal end of the polyimide tube and maintain pressure until the silicone begins to solidify. 7. Allow to cure at room temperature for 12 hours. 8. Place under vacuum for 30 minutes. 9. Place tube in right size trim fixture (prepared in house to hold different size tubing) and cut drug inserts to length (0.80-0.95 mm).
Testing. Elution study (in vitro). 1. Place 10 plugs of same size and same concentration per centrifuge tube and add 1.5 ml of 7.4 pH buffer solution to it. 2. Change the solvent with fresh 7.4 pH buffer after appropriate time. 3. Take HPLC of the elutant at 210 nm with PDA detector 2996 using Sunfire C18, 3 mm×10 mm column (Waters Corporation, Milford, Mass.). Acetonitrile and water mixture is used for gradient elution. Calibration was done in house before and after each analysis, using in-house standards with precisely weighed concentration of Latanoprost. 4. Calculate the amount of drug release per day per device for different size tubings having different concentrations of Latanoprost. 5. Plot elution rate vs area and concentration for day 1 and day 14.

[2] = Bimatoprost bulk sample elution, normalized to ng per device per day; format: physicochemical; conditions: for zero order elution rate: about 90 days
Experimental: Bulk samples of 1% Bimatoprost having a known diameter of 0.076 cm (0.76 mm) were prepared. The height of each sample was determined from the weight and known diameter of the sample.
The calculated heights ranged from 0.33 cm to 0.42 cm. The exposed surface area on each end of each bulk sample was approximately 0.045 cm2, providing volumes of 0.019 cm3 and 0.015 cm3 for the 0.42 and 0.33 cm samples, respectively. The exposed an exposed surface area of samples calculated from the height and diameter without a drug sheath was approximately 0.1 cm2. Three formulations were evaluated: 1) silicone 4011, 1% Bimatoprost, 0% surfactant; 2) silicone 4011, 1% Bimatoprost, approximately 11% surfactant; and 3) silicone 4011, 1% Bimatoprost, approximately 33% surfactant. The elution data measured for the bulk samples with formulation 1, 2 and 3 were normalized to ng per device per day (ng/device/day) assuming a surface area of the bulk device is 0.1 cm2 and the surface area of the clinical device is 0.00078 cm2 (0.3 mm diameter). […] The normalized elution profile is about 10 ng per day. […] Similar formulations can be used with drug core sheaths and a shaped exposed surface of the core exposed to the tear to increase the exposed surface area as described above and deliver the drug in therapeutic amounts over an extended period.

[3] = cited from earlier work
[4] = Inclusion (droplet) diameter in silicone/latanoprost cores, scanning electron micrographs; format: physicochemical; conditions: for average inclusion diameter and standard deviation: latanoprost-silicone mixture, n=40 inclusion; for average diameter of latanoprost droplets: silicone matrix
Experimental: A two part silicone formulation (MED6385, Nusil Technologies) was used in the preparation of a composite resin containing latanoprost, which was used to fill a section of polyimide sheathing. The sheathing containing the polymerized silicone incorporates discrete latanoprost domains, existing in the form of droplets of less than about 25 μm maximum diameter, within the matrix. Several experiments were conducted.
Part A of the MED6385 silicone formulation was mixed with 0.43 μL of Part B, the tin catalyst, using syringes, to bring about partial coagulation of the polymer over 30 minutes. Then, 37 mg of that material was mixed with a premixed solution of 0.144 additional catalyst and 13 mg latanoprost, and that mixture could be further mixed by sonication with an ultrasonic probe. The resulting mixture was transferred to a syringe needle connected to a HP7x syringe adapter, which is connected to an EFD pump, which is in turn connected to a compressed air system and the delivery pressure set to 40 psi. The silicone-latanoprost mixture is then extruded down the length (10 cm) of polyimide tubing (IWG High Performance Conductors, Inc.). When the viscous mixture reached the bottom of polyimide tubing, clamps were applied at the bottom of the tubing and at the top connection with the syringe adapter, then pressure is released and the tubing section removed. The clamped section of tubing was placed in a humidity chamber (Thunder Scientific) for curing at 40° C. and 80% relative humidity (RH) for approximately 16-24 hrs.
Scanning electron micrographs of the sheath containing the cured matrix, i.e., the filled precursor sheath, are shown in FIG. 15A-D at the magnifications indicated. The inserts were sectioned cryogenically. FIGS. 15A and 15B, respectively, show the insert cores wherein the extrusion was carried at 40° C. (A) or 25° C. (B).
The temperature of the mixture, and of the associated apparatus involved in filling the polyimide sheath was held at various temperatures during the injection process. Among the temperatures used were a slightly elevated temperature (40° C.), approximate room temperature (25° C.), and subambient temperatures, such as 0° C., −5° C., and −25° C. The subambient injection procedures are provided in this Example.
Scanning electron micrographs of the sheath containing the cured matrix, i.e., the filled precursor sheath, are shown in FIG. 15A-D at the magnifications indicated. The inserts were sectioned cryogenically. FIGS. 15C and 15D show the results of extrusions carried out at 0° C. and −25° C. respectively. They can be compared with FIGS. 15A and 15B that were carried out at ambient temperature (25° C.) or above (40° C.).
Measurements of average inclusion diameters, and standard deviation thereof, are as shown: […]

[5] = Latanoprost content per 1 mm section divided from a filled precursor tube; format: physicochemical
Experimental: (squares) unexpectedly produced a more uniform distribution of therapeutic agent latanoprost in the silicone matrix, after curing, along the entire length of the 10 cm precursor sheath, which was subsequently divided into 1 mm sections, and the latanoprost content of each sections (drug insert) determined. Extrusions carried out at room temperature (circles) and at 40° C. […] The results are significant in terms of manufacturing medically useful devices, as it is desirable to maintain a uniform content of the therapeutic agent among a plurality of drug inserts manufactured by this method.
Measurements of average latanoprost content (μg) per 1 mm section (core) divided (razor blade) from a filled precursor tube are as shown: […]

[6] = test system: IOP; conditions: cited from earlier work
[7] = topical drop to the eye; cited from earlier work
[8] = formulations A-D (silicone 4011 or 6385, 10-20% Latanoprost, 0-20% NaCl), non-sterile cores

Question: For CCNC(=O)CCC/C=C\C[C@@H]1[C@@H](/C=C/[C@@H](O)CCc2ccccc2)[C@H](O)C[C@@H]1O [Bimatoprost], which elution rate ([1]; 20% bimatoprost in NuSil 6385, 0% salt, 1 day) is on record?
Answer: about 100 ng per day

Question: And the relative elution rate ([1]; 20% bimatoprost in NuSil 6385, 0% salt, all time periods to two weeks)?
Answer: lowest elution rate

Question: And the elution rate ([1]; 20% bimatoprost in NuSil 6385, 10% salt, 1 day)?
Answer: 400 ng per day

Question: What about the elution rate ([1]; 20% bimatoprost in NuSil 6385, 20% salt, 1 day) of the same molecule?
Answer: about 750 ng/day

Question: What about the relative elution rate ([1]; 20% bimatoprost in NuSil 6385, 20% salt, all time periods to two weeks) of the same molecule?
Answer: highest elution rate

Question: And the release kinetics ([2]; from about ten days to about 90 days, each of the formulations 1-3)?
Answer: approximately zero order release kinetics

Question: And the “zero order elution rate” value ([2]; scaled to 0.76 mm exposed diameter (0.0045 cm2))?
Answer: about 60 ng per day

Question: What about the “zero order elution rate” value ([2]; scaled to exposed surface area about 0.0078 cm2) of the same molecule?
Answer: about 100 ng per day

Question: What about the normalized elution profile ([2]; silicone 4011, 1% Bimatoprost, 0/11/33% surfactant bulk samples, normalized to 0.3 mm exposed surface diameter (0.00078 cm2)) of the same molecule?
Answer: about 10 ng per day

Question: With O=C1OC2(c3ccc(O)cc3Oc3cc(O)ccc32)c2ccccc21 [Fluorescein] as the molecule, how does the “solubility in water” value [3] read?
Answer: soluble in water

Question: For CC(C)OC(=O)CCC/C=C\C[C@@H]1[C@@H](CC[C@@H](O)CCc2ccccc2)[C@H](O)C[C@@H]1O [Latanoprost], which elution rate ([1]; 7 μg core (10%, 0.32 mm diameter, 0.95 mm long), 10 to 20 days, compared with 14 μg core) is on record?
Answer: comparable rates

Question: And the elution rate ([1]; 14 μg core (20%, 0.32 mm diameter, 0.95 mm long), from about 10 to 40 days)?
Answer: approximately 100 ng per day

Question: What about the relative elution rate ([1]; 20% latanoprost in 6380 material with 2.5% crosslinker, 1, 4, 7 and 14 days, vs 6385 material) of the same molecule?
Answer: slightly lower elution rate

Question: And the relative elution rate ([1]; 20% latanoprost in 6380 material with 5% crosslinker, all time points)?
Answer: lowest elution rate

Question: What about the relative elution rate ([1]; 20% latanoprost in 6385 material with 2.5% crosslinker, 1, 4, 7 and 14 days) of the same molecule?
Answer: highest elution rates

Question: What about the relative elution rate ([1]; 6385 material with 5% latanoprost, all time periods) of the same molecule?
Answer: lowest rate

Question: And the elution rate ([1]; 6385 material with 5, 10, 20, 30 and 40% latanoprost, all samples, by 7 days)?
Answer: below 500 ng per day

Question: What about the “elution rate, both ends open/2 compared with one end open” value ([1]; 6385 material with 20% latanoprost, all time points) of the same molecule?
Answer: very close to the one end open data

Question: What about the relative elution rate ([1]; 6385 material with 40% latanoprost, all time periods) of the same molecule?
Answer: highest rate

Question: What about the “initial elution of Latanoprost from plug” value ([1]; buffered saline elution system, initial) of the same molecule?
Answer: approximately 500 ng per day

Question: And the “elution rate after dropping off” value ([1]; buffered saline elution system, within 7-14 days, depending on initial concentration)?
Answer: approximately 100 ng/day

Question: What about the “Latanoprost released (elution rate)” value ([1]; day 1, 0.006 inch diameter core, exposed surface area approx 0.02 mm2) of the same molecule?
Answer: about 200 ng

Question: What about the “Latanoprost released (elution rate)” value ([1]; day 1, 0.012 inch diameter core, exposed surface area approx 0.07 mm2) of the same molecule?
Answer: ~400 ng

Question: And the “Latanoprost released (elution rate)” value ([1]; day 1, 0.025 inch diameter core, exposed surface area approx 0.32 mm2)?
Answer: ~1200 ng

Question: And the “Latanoprost released (elution rate)” value ([1]; day 14, 0.006 inch diameter core, approx 0.02 mm2)?
Answer: about 25 ng

Question: And the “Latanoprost released (elution rate)” value ([1]; day 14, 0.012 inch (0.32 mm) diameter core, approx 0.07 mm2)?
Answer: ~100 ng

Question: And the “Latanoprost released (elution rate)” value ([1]; day 14, 0.025 inch diameter core, approx 0.32 mm2)?
Answer: ~300 ng

Question: And the elution rate ([1]; e-beam sterile core, 20% latanoprost in 6385, first day)?
Answer: about 450 ng/day

Question: What about the “elution rate by 3 weeks (21 days)” value [1, 8] of the same molecule?
Answer: about 100 ng per device per day

Question: And the initial elution rate [1, 8]?
Answer: approximately 300 ng per device per day

Question: What about the elution rate ([1]; non-sterile core, 20% latanoprost in 6385, 14 day) of the same molecule?
Answer: about 150 ng/day

Question: And the elution rate ([1]; non-sterile core, 20% latanoprost in 6385, days 4 and 7)?
Answer: about 400 ng/day

Question: And the elution rate ([1]; non-sterile core, 20% latanoprost in 6385, first day)?
Answer: ~1400 ng/day

Question: And the elution rate ([1]; sterile core, 20% latanoprost in 6385, 14 day)?
Answer: 200 ng/day

Question: And the elution rate ([1]; sterile core, 20% latanoprost in 6385, days 4 and 7)?
Answer: about 400 ng/day

Question: What about the Duration ([1]; total Latanoprost content 3.5 μg) of the same molecule?
Answer: ~25 days

Question: What about the Duration ([1]; total Latanoprost content 7 μg) of the same molecule?
Answer: ~45 days

Question: What about the Duration ([1]; total Latanoprost content 14 μg) of the same molecule?
Answer: ~100 days

Question: And the “average inclusion diameter and standard deviation” value ([4]; Cold extrusion (−5° C.))?
Answer: 0.006±0.002 mm

Question: And the “maximum diameter of latanoprost droplets” value ([4]; MED6385 matrix, high pressure filling)?
Answer: less than 25 μm

Question: What about the “average inclusion diameter and standard deviation” value ([4]; Room temp (22° C.) extrusion) of the same molecule?
Answer: 0.019+0.019 mm and 0.019±0.019 mm

Question: What about the “average diameter of latanoprost droplets” value ([4]; cold extrusion (−5° C.)) of the same molecule?
Answer: 6 μm

Question: And the “average diameter of latanoprost droplets” value ([4]; extrusion at room temperature)?
Answer: 19 μm

Question: What about the “average latanoprost content per 1 mm section (Average±SD)” value ([5]; Cold extrusion (−5° C.)) of the same molecule?
Answer: 20.9 ± 0.5 µg

Question: And the “average latanoprost content per 1 mm section (Average±SD)” value ([5]; Room temperature (22° C.) extrusion)?
Answer: 20.2 ± 1.9 µg

Question: And the “duration of IOP lowering” value ([6]; about 200 ng of drug remaining on the eye after a drop of Xalatan)?
Answer: at least 24 hours

Question: And the “IOP reduction relative to that of the 50 μg/mL QD dose” value ([6]; lowest doses of 12.5 μg/mL QD or 15 μg/mL BID)?
Answer: 60-75%

Question: For CC(C)(C)NC[C@H](O)COc1nsnc1N1CCOCC1 [Timolol], which bioavailability [7] is on record?
Answer: 30-50%
